Measured values: paper PMC10528299, “Targeting FAK/PYK2 with SJP1602 for Anti-Tumor Activity in Triple-Negative Breast Cancer” (Current Issues in Molecular Biology, 2023)

What was measured:
Assay in all cases: Eurofins kinase profiling
Type in all cases: biochemical
IR(h), activated = biological target: T1, IR(h), activated (Homo sapiens, UniProt P06213); conditions: 1 µM
T1 construct: purchased Eurofins KinaseProfiler
Procedure, shortened: (§1)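 Each kinase is incubated with compound (1 µM). Activity is then determined radiometrically from transfer of labeled phosphate.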

[1] = biological target: T2, PI3 Kinase (p110b/p85a)(h) (Homo sapiens, UniProt P42338); conditions: read-out: residual kinase activity PI3 Kinase (p110b/p85a)(h)
T2 construct: purchased Eurofins KinaseProfiler
Procedure, shortened: as §1

FAK(h) = biological target: T3, FAK(h) (Homo sapiens, UniProt Q05397); conditions: read-out: residual kinase activity FAK(h)
T3 construct: purchased Eurofins KinaseProfiler
Procedure, shortened: as §1

EGFR(L861Q)(h) = biological target: T4, EGFR(L861Q)(h) (Homo sapiens, UniProt P00533, L861Q); conditions: read-out: residual kinase activity EGFR(L861Q)(h)
T4 construct: purchased Eurofins KinaseProfiler
Procedure, shortened: as §1

Abl(T315I)(h) = biological target: T5, Abl(T315I)(h) (Homo sapiens, UniProt P00519, T315I); conditions: read-out: residual kinase activity Abl(T315I)(h)
T5 construct: purchased Eurofins KinaseProfiler
Procedure, shortened: as §1

Yes(h) = biological target: T6, Yes(h) (Homo sapiens, UniProt P07947); conditions: read-out: residual kinase activity Yes(h)
T6 construct: purchased Eurofins KinaseProfiler
Procedure, shortened: as §1

Flt4(h) = biological target: T7, Flt4(h) (Homo sapiens, UniProt P35916); conditions: read-out: residual kinase activity Flt4(h)
T7 construct: purchased Eurofins KinaseProfiler
Procedure, shortened: as §1

TAK1(h) = biological target: T8, TAK1(h) (Homo sapiens, UniProt O43318); conditions: read-out: residual kinase activity TAK1(h)
T8 construct: purchased Eurofins KinaseProfiler
T8 sequence (O43318 1-303 limits assumed): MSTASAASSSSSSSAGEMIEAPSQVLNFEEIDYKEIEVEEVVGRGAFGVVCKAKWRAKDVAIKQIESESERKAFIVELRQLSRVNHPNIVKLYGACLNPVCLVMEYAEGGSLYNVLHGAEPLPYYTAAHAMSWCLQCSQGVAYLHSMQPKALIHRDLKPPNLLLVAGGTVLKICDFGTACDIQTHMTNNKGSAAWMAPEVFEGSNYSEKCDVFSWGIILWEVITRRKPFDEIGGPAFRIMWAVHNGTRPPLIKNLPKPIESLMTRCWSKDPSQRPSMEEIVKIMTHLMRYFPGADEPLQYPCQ
Procedure, shortened: as §1

EphA7(h) = biological target: T9, EphA7(h) (Homo sapiens, UniProt Q15375); conditions: read-out: residual kinase activity EphA7(h)
T9 construct: purchased Eurofins KinaseProfiler
Procedure, shortened: as §1

NIM1(h) = biological target: T10, NIM1(h) (Homo sapiens, UniProt Q8IY84); conditions: read-out: residual kinase activity NIM1(h)
T10 construct: purchased Eurofins KinaseProfiler
Procedure, shortened: as §1

PKBα(h) = biological target: T11, PKBα(h) (Homo sapiens, UniProt P31749); conditions: read-out: residual kinase activity PKBα(h)
T11 construct: purchased Eurofins KinaseProfiler
Procedure, shortened: as §1

FGFR2(h) = biological target: T12, FGFR2(h) (Homo sapiens, UniProt P21802); conditions: read-out: residual kinase activity FGFR2(h)
T12 construct: purchased Eurofins KinaseProfiler
Procedure, shortened: as §1

EGFR(T790M)(h) = biological target: T13, EGFR(T790M)(h) (Homo sapiens, UniProt P00533, T790M); conditions: read-out: residual kinase activity EGFR(T790M)(h)
T13 construct: purchased Eurofins KinaseProfiler
Procedure, shortened: as §1

Snk(h) = biological target: T14, Snk(h) (Homo sapiens, UniProt Q9NYY3); conditions: read-out: residual kinase activity Snk(h)
T14 construct: purchased Eurofins KinaseProfiler
Procedure, shortened: as §1

c-RAF(h) = biological target: T15, c-RAF(h) (Homo sapiens, UniProt P04049); conditions: read-out: residual kinase activity c-RAF(h)
T15 construct: purchased Eurofins KinaseProfiler
Procedure, shortened: as §1

TrkC(h) = biological target: T16, TrkC(h) (Homo sapiens, UniProt Q16288); conditions: read-out: residual kinase activity TrkC(h)
T16 construct: purchased Eurofins KinaseProfiler
Procedure, shortened: as §1

EphB4(h) = biological target: T17, EphB4(h) (Homo sapiens, UniProt P54760); conditions: read-out: residual kinase activity EphB4(h)
T17 construct: purchased Eurofins KinaseProfiler
T17 sequence (P54760 16-987): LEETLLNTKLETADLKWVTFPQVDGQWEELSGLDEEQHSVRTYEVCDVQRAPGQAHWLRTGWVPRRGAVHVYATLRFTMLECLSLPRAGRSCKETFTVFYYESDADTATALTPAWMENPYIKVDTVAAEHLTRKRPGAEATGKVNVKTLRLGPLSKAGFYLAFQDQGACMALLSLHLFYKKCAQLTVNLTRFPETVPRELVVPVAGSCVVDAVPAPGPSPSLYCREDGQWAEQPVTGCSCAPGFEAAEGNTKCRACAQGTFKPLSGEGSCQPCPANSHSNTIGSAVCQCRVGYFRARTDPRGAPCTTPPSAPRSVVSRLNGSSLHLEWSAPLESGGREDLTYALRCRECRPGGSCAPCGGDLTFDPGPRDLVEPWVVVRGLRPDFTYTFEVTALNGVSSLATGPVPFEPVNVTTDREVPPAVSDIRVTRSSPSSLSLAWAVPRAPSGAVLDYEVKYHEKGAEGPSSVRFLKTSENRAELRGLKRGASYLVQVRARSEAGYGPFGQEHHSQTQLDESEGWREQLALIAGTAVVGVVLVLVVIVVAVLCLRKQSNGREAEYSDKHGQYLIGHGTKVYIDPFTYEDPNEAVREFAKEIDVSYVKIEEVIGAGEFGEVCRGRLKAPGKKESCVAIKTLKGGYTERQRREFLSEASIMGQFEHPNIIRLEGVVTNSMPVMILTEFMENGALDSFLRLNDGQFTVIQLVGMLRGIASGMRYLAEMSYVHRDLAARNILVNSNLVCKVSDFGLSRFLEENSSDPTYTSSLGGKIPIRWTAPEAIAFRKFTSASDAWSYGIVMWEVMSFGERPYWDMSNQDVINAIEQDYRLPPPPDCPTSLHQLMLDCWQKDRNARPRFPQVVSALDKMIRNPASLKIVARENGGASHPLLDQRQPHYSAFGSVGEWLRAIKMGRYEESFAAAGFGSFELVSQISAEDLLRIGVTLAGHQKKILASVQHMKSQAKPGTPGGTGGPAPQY
Procedure, shortened: as §1

Pyk2(h) = biological target: T18, Pyk2(h) (Homo sapiens, UniProt Q14289); conditions: read-out: residual kinase activity Pyk2(h)
T18 construct: purchased Eurofins KinaseProfiler
Procedure, shortened: as §1

T15 sequence (P04049 whole entry): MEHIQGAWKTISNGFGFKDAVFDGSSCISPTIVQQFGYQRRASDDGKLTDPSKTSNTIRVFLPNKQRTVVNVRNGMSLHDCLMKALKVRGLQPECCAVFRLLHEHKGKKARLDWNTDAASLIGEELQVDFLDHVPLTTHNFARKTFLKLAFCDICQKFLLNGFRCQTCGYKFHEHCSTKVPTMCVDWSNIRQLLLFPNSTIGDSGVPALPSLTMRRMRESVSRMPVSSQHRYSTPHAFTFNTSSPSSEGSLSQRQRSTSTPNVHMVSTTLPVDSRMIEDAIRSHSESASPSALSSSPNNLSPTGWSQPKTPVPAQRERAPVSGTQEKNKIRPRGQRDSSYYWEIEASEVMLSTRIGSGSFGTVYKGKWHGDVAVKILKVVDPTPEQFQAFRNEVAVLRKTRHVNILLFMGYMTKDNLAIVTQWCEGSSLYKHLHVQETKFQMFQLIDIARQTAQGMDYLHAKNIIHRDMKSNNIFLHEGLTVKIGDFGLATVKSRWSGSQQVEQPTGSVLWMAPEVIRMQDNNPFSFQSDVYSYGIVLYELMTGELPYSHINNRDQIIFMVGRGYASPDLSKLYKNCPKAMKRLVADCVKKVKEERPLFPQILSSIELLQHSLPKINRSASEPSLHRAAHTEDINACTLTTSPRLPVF
T7 sequence (P35916 25-1363): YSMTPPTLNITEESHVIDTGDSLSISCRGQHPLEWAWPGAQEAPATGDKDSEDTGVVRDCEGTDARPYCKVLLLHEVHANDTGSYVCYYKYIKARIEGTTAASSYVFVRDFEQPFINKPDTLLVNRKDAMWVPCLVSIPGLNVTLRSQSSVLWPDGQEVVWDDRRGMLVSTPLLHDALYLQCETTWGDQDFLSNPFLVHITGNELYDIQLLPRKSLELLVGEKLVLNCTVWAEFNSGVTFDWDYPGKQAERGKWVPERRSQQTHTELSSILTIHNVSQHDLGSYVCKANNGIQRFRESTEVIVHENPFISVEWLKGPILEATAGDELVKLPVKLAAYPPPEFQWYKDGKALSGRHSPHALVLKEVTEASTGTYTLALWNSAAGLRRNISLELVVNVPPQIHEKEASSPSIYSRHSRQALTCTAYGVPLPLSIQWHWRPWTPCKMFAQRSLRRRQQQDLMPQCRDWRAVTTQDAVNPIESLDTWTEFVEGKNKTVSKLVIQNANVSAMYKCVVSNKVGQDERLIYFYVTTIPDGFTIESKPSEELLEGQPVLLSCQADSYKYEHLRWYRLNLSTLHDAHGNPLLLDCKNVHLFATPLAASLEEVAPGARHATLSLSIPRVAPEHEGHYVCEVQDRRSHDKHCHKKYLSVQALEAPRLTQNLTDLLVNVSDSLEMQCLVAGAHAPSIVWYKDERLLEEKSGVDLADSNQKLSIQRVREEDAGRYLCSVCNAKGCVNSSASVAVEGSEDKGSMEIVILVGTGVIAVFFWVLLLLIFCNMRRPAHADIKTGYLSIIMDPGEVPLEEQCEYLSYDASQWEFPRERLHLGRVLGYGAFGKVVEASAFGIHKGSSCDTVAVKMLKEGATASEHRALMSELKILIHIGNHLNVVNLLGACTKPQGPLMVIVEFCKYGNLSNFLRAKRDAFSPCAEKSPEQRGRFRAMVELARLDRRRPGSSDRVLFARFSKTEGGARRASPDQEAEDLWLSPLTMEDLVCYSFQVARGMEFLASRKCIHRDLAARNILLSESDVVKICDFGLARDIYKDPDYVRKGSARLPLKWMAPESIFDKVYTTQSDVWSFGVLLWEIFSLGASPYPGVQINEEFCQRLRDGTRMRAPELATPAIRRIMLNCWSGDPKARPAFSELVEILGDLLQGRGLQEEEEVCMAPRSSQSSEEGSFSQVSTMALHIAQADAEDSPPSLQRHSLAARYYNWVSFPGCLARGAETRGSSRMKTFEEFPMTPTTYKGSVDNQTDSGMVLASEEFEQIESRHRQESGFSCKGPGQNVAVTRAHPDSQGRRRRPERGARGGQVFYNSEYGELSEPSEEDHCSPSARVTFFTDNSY
T4 sequence (P00533 25-1210 L861Q): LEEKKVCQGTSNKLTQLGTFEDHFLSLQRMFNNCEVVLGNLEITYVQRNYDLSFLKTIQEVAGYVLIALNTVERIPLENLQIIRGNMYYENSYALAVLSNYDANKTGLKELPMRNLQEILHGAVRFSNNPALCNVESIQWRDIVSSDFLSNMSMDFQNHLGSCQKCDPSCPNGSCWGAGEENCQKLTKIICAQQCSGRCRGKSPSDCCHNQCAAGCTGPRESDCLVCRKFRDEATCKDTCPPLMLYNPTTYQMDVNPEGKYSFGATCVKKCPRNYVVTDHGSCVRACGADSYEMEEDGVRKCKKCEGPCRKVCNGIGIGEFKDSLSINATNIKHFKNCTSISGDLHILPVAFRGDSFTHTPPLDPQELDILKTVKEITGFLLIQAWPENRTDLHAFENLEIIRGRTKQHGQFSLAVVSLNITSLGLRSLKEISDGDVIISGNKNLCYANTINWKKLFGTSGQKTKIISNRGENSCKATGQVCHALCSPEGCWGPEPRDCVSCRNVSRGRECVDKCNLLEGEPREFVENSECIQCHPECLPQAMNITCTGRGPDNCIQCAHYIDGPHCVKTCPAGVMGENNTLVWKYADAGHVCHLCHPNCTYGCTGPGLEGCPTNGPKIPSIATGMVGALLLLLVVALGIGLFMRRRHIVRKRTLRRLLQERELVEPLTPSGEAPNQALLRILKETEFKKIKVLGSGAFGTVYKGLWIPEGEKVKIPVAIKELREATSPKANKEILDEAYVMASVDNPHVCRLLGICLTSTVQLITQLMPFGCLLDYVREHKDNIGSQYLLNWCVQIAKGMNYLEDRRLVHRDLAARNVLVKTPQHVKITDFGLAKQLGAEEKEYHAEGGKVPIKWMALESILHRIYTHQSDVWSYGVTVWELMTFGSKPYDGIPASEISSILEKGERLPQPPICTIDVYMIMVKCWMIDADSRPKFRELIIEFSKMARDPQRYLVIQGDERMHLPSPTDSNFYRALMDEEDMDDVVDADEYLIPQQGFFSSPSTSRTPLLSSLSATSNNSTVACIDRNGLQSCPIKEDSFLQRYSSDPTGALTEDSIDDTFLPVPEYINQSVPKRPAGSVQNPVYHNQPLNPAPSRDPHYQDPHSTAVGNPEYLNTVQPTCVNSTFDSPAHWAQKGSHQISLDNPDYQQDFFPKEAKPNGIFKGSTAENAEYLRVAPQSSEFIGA
T1 sequence (P06213 28-1382): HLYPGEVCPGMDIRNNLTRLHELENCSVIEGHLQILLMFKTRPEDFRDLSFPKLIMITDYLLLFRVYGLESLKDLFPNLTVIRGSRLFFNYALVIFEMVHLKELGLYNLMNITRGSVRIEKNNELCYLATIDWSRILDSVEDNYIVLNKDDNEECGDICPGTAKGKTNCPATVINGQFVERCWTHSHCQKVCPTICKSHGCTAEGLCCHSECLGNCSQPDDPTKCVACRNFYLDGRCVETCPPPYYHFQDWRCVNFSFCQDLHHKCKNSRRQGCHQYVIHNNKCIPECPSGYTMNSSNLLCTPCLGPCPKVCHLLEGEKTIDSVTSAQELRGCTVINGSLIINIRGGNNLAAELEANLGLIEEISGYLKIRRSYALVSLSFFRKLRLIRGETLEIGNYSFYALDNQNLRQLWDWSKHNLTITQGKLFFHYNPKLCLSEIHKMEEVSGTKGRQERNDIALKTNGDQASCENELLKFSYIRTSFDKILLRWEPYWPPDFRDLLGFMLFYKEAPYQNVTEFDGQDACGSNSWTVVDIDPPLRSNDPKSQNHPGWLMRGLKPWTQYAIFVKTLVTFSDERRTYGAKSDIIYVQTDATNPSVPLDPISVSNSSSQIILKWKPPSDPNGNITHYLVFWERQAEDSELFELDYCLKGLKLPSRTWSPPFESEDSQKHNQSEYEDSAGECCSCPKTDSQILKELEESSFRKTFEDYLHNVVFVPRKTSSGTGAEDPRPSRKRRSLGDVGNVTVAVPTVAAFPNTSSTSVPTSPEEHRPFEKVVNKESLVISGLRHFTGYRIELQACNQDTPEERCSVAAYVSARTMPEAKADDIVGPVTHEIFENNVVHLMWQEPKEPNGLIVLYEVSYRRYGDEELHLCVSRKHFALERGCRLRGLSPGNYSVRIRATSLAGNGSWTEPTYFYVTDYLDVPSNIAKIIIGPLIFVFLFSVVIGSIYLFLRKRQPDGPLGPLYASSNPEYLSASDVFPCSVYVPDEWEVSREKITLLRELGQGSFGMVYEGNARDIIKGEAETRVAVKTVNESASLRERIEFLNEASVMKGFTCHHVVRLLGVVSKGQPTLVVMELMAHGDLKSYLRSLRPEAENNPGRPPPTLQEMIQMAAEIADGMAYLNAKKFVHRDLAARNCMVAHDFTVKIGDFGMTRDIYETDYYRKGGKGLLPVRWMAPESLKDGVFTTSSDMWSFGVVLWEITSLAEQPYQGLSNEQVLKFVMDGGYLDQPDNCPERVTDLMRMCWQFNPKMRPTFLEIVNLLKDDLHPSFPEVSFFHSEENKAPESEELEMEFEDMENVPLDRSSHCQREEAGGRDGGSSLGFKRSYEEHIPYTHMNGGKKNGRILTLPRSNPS
T6 sequence (P07947 whole entry): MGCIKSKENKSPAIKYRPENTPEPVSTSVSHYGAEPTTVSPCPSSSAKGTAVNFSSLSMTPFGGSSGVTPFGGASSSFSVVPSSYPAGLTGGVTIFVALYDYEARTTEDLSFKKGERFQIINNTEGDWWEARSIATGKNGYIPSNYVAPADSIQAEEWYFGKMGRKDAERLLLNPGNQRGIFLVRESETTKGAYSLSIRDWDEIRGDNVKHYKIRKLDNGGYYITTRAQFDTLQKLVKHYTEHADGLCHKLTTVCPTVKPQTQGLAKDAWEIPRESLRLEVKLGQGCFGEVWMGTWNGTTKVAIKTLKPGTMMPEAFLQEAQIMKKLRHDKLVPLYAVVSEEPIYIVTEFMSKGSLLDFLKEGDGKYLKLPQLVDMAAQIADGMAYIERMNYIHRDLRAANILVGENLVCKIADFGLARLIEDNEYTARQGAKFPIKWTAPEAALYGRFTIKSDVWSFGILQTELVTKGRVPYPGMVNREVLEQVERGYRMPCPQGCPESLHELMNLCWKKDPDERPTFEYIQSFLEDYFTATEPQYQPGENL

residual kinase activity IR(h), activated (IR(h), activated) | remaining activity at 1 µM [1] [%] | remaining activity at 1 µM (FAK(h)) [%] | remaining activity at 1 µM (EGFR(L861Q)(h)) [%] | remaining activity at 1 µM (Abl(T315I)(h)) [%] | remaining activity at 1 µM (Yes(h)) [%] | remaining activity at 1 µM (Flt4(h)) [%] | remaining activity at 1 µM (TAK1(h)) [%] | remaining activity at 1 µM (EphA7(h)) [%] | remaining activity at 1 µM (NIM1(h)) [%] | remaining activity at 1 µM (PKBα(h)) [%] | remaining activity at 1 µM (FGFR2(h)) [%] | remaining activity at 1 µM (EGFR(T790M)(h)) [%] | remaining activity at 1 µM (Snk(h)) [%] | remaining activity at 1 µM (c-RAF(h)) [%] | remaining activity at 1 µM (TrkC(h)) [%] | remaining activity at 1 µM (EphB4(h)) [%] | remaining activity at 1 µM (Pyk2(h)) [%] | Structure (SMILES)
76 | 105 | -1 | 69 | 92 | 99 | 67 | 95 | 99 | 85 | 105 | 98 | 106 | 113 | 72 | 104 | 94 | 60 | CONC(=O)c1ccccc1Nc1cc(Nc2cc(C)nn2C(C)C)ncc1Cl [GSK2256098]
30 | 103 | -6 | 128 | 44 | 56 | -3 | 71 | 41 | 78 | 101 | 46 | 82 | 64 | 80 | 13 | 67 | 6 | CNC(=O)c1ccc(Nc2ncc(C(F)(F)F)c(NCc3nccnc3N(C)S(C)(=O)=O)n2)cc1 [VS-6063, Defactinib]

Structure (SMILES) | residual kinase activity IR(h), activated (IR(h), activated) | remaining activity at 1 µM [1] [%] | remaining activity at 1 µM (FAK(h)) [%] | remaining activity at 1 µM (EGFR(L861Q)(h)) [%] | remaining activity at 1 µM (Abl(T315I)(h)) [%] | remaining activity at 1 µM (Yes(h)) [%] | remaining activity at 1 µM (Flt4(h)) [%] | remaining activity at 1 µM (TAK1(h)) [%] | remaining activity at 1 µM (EphA7(h)) [%] | remaining activity at 1 µM (NIM1(h)) [%] | remaining activity at 1 µM (PKBα(h)) [%] | remaining activity at 1 µM (FGFR2(h)) [%] | remaining activity at 1 µM (EGFR(T790M)(h)) [%] | remaining activity at 1 µM (Snk(h)) [%] | remaining activity at 1 µM (c-RAF(h)) [%] | remaining activity at 1 µM (TrkC(h)) [%] | remaining activity at 1 µM (EphB4(h)) [%] | remaining activity at 1 µM (Pyk2(h)) [%]
CNC(=O)c1cccc(C)c1Nc1nc(Nc2ccc(N3CCN(C4C5CC6CC4CC(O)(C6)C5)CC3)cc2OC)ncc1C(F)(F)F (stereo not drawn) [SJP1602, 2-((2-((4-(4-((2s,5r)-5-hydroxyadamantan-2-yl)piperazin-1-yl)-2-methoxyphenyl)amino)-5-(trifluoromethyl)pyrimidin-4-yl)amino)-N,3-dimethylbenzamide] | 61 | 100 | 3 | 120 | 106 | 84 | 104 | 113 | 103 | 95 | 100 | 90 | 119 | 105 | 90 | 120 | 93 | 4
